From US20250064836A1 (priority 2023, published 2025)
Entries after “also recorded” stand apart in the source; their conditions may differ. Like-named read-outs stand apart in the source and are kept apart here. No end group written: not given here.

B1: fremanezumab (antibody, chains of the INN, looked up, V domains shown)
VH: EVQLVESGGGLVQPGGSLRLSCAASGFTFSNYWISWVRQAPGKGLEWVAEIRSESDASATHYAEAVKGRFTISRDNAKNSLYLQMNSLRAEDTAVYYCLAYFDYGLAIQNYWGQGTLVTVSS
VL: EIVLTQSPATLSLSPGERATLSCKASKRVTTYVSWYQQKPGQAPRLLIYGASNRYLGIPARFSGSGSGTDFTLTISSLEPEDFAVYYCSQSYNYPYTFGQGTKLEIK

Assays:
[1] = tested on: human brain pericytes; assay: IL-8 secretion from cultured pericytes (ELISA); format: cell-based
Experimental: Primary human cultured brain vascular pericytes (ScienCell, #1200) were routinely cultured in special medium with supplement, FBS and penicillin streptomycin provided by the cell's vendor (ScienCell, #1201). Cells were subcultured when confluent and used up to passage 10. For secretion assays these were performed on early passage cells (passages 3-8). Cytokine secretion in cell culture medium was determined using ELISA based assays against IL-8 (Biolegend, 431504). The effect of CGRP on cultured pericytes was determined by incubating pericytes for 1 h with human CGRPB (Cayman, 24725).

[2] = tested on: mice; format: in vivo, mouse
[3] = tested on: C. difficile 630 Δerm; assay: Antibiotic-treatment-induced CDI mouse model, C. difficile 630 Δerm; conditions: for histopathological scores: CDI mouse model, 630 Δerm, FIG. 4D; for histopathological scores / pathogen burden (C. difficile CFUs in faeces): WT mice; for pathogen burden (C. difficile CFUs in faeces): day 2 after infection
[4] = tested on: C. difficile M7404 (A-/B+); assay: CDI mouse model, hypervirulent strain M7404 (TcdA-/TcdB2); conditions: for fatality: CDI with M7404 (A-/B+), mice; for histopathological scores of colitis: surviving mice, CDI with M7404
[5] = tested on: mouse footpads; conditions: for oedema induced by TcdB2: footpad injection of TcdB2, antagonist pre-treatment
Experimental: The footpad toxin injection assay was performed as previously described. Briefly, mice were restrained in an incontinence pad and the footpad was held and subsequently injected using a 29.5G syringe into the plantar surface. […] Paw diameter changes were assessed by calculating a ratio relative to the un-injected foot. For each test toxin, 500 ng were administered in a volume of 20 μl of normal saline. Pharmacological assays were performed in female CDI mice, with pre-treatment with drugs 30 min to 1 h prior to toxin injection. For experiments involving transgenic mice, experiments were performed in male and female mice (age matched, 8-15 weeks).

[6] = tested on: C. difficile 630 Δerm; assay: C. difficile growth in vitro (OD600); conditions: 20 μM, 24 h
[7] = tested on: cecal tissue explants; conditions: mouse, in vivo
[8] = cecum injection of TcdB (6 μg), mice pretreated with antagonist 30 min to 1 h before, FIG. 4C

Row | Molecule | histopathological scores [2, 8] | histopathological scores [3] | pathogen burden (C. difficile CFUs in faeces) [3] | fatality [4] | histopathological scores of colitis [4] | oedema induced by TcdB2 [5] | C. difficile growth rate / fitness (OD600) [6] | CGRP secretion [7] | histopathological scores ([2]; mouse, in vivo) | further results
1 | CGRP: human CGRPβ (Cayman, 24725) added to cultured pericytes (ACNTATCVTHRLAGLLSRSGGMVKSNFVPTNVGSKAF; ends and bridges not checked; cysteine pairing not given here; UniProt P10092 82-118, looked up) |  |  |  |  |  |  |  |  |  | IL-8 secretion [1]: induced secretion of IL-8
2 | NCCCC[C@H](NC(=O)[C@@H](Cc1cc(Br)c(O)c(Br)c1)NC(=O)N1CCC(N2Cc3ccccc3NC2=O)CC1)C(=O)N1CCN(c2ccncc2)CC1 [olcegepant] | reduced histopathological scores | reduced histopathological scores | reduced pathogen burden | markedly reduced | markedly reduced | can prevent oedema induced by TcdB2; also recorded: prevented | not affected; also recorded: Neither drug influenced C. difficile growth rate |  |  | effect on C. difficile colonization and histopathological scores ([3]; Calcb KO mice): nor had an effect
3 | C=C(C)[C@]12C[C@@H](C)[C@@]34O[C@](Cc5ccccc5)(O[C@@H]1[C@@H]3C=C(COC(=O)Cc1ccc(O)c(OC)c1)C[C@]1(O)C(=O)C(C)=C[C@@H]41)O2 [RTX, resiniferatoxin] |  |  |  |  |  |  |  | reduced |  | histopathology upon TcdB administration ([2]; mouse, in vivo): less severe histopathology; SP levels [7]: reduced SP levels
4 | substance P (RPKPQQFFGLM; not fully specified (C-terminus); ends and bridges not checked; UniProt P20366 58-68, looked up) [neuropeptide composed of a chain of 11 amino acids, tachykinin family] |  |  |  |  |  |  |  | restored | restored histopathological scores | susceptibility to TcdB (histopathology) ([2]; mouse, in vivo): restored the susceptibility
5 | C[C@@H](O[C@H]1OCCN(Cc2n[nH]c(=O)[nH]2)[C@H]1c1ccc(F)cc1)c1cc(C(F)(F)F)cc(C(F)(F)F)c1 [aprepitant] | reduced histopathological scores | reduced histopathological scores | reduced pathogen burden | markedly reduced | markedly reduced | prevented | not affected; also recorded: Neither drug influenced C. difficile growth rate |  |  | effect on C. difficile colonization and histopathological scores ([3]; Tac1 KO mice): nor had an effect; oedema induced by TcdA ([5]; footpad injection of TcdA, antagonist pre-treatment): prevented; also recorded: blocked; oedema induced by TcdB2 ([5]; listed as Aprepitant): can prevent oedema induced by TcdB2; oedema induced by TcdB ([5]; footpad injection of TcdB, antagonist pre-treatment): prevented oedema induced by TcdB; oedema induced by GTD-ciDT ([5]; footpad, Tac1-Cre mice infected with AAV-DTR): blocked
6 | B1 |  | reduced histopathological scores |  |  |  |  |  |  | reduced histopathological scores | 
